Assay results published in PubChem BioAssay AID1963834 (Molecular Pharmacology Branch, DTP, NCI, 2024).

System: 873145-292-R-J1-PDC complex spheroid viability
Assay: Anticancer human tumor 873145-292-R-J1-PDC patient-derived renal clear cell carcinoma cell line growth inhibition [POLQ]
Conditions: for IC50: curve of first compound; for viability, T/C: stronger effect = lower value
Experimental: Multicellular complex tumor spheroid response to Polymerase (POL) inhibitors (novobiocin, ART-558, RP6685) in combination with a variety of drugs and investigational agents in selected tumor cell lines
The POL inhibitors (novobiocin, ART-558, and RP6685) were evaluated both individually and in combination with standard of care and investigational anticancer small molecules within a complex spheroid model of solid tumors. . Complex spheroids include a stromal component modeled by human endothelial cells (HUVEC) and fibroblasts modeled by human mesenchymal stem cells (MSCs). The concentration ranges selected for each drug and investigational agent were based upon clinically achievable concentrations if the clinical Cmax of the agent was known.
Compounds. The drugs and investigational agents: novobiocin (NSC847541), ART-558 (NSC835418), RP-6685 (NSC848927), peposertib (NSC802822), ceralasertib (NSC780249), elimusertib (NSC800525), camonsertib (NSC841442), AZD-1390 (NSC803789), olaparib (NSC753686), talazoparib (NSC767125), rucaparib (NSC756644), sotorasib (NSC818433), MRTX-1133 (NSC836407), SN-38 (NSC673596), topotecan (NSC609699), epotoside (NSC141540), doxorubicin (NSC123127), gemcitabine (NSC613327), 5-fluorouracil (NSC19893), paclitaxel (NSC125973), vemurafenib (NSC761431), MSA-2 (NSC828583), SN-011 (NSC837082), adavosertib (NSC754352), prexasertib (NSC758257), carboplatin (NSC241240) and oxaliplatin (NSC266046), were obtained from the National Cancer Institute (NCI) Developmental Therapeutics Program Chemical Repository (21). The FDA-approved anticancer drug set is available from the Developmental Therapeutics Program at https://dtp.cancer.gov/organization/dscb/obtaining/. […] The stock solutions were prepared in dimethyl sulfoxide (DMSO, Sigma-Aldrich, St. Louis, MO, cat. D2650), except for the platinum compounds which were prepared in saline (Quality Biological, Gaithersburg, MD, cat. 114-055-101), at 800-fold the tested concentration and stored at -70 degrees C prior to their use. All drugs and investigational agents were tested over a range starting from a high concentration at or near the clinical Cmax and decreasing in half-log increments. If the clinical Cmax for an agent had not been determined, the highest concentration tested was 10 microM, except for SN-38, which was tested at a high concentration of 1 microM.
Cell Culture. All cells were maintained in an incubator at 37 degrees C and 5% CO2 with 95% humidity. The PDC lines were cultured according to standard operating procedures established by the NCI PDMR (https://pdmr.cancer.gov). Table 3 of the manuscript, lists the cell lines along with the number of the three cell types plated to form the mct-spheroids and media for tumor cell growth. After thawing, all PDC lines, except 997537-175-T-J1-PDC and 415267-285-R-J2-PDC, were cultured in Matrigel-coated flasks prepared with a working solution of 1X Ham's F-12 nutrient mix, without supplementation (Thermo Fisher Scientific, cat. 11765054), 100 U/mL penicillin-streptomycin (Thermo Fisher Scientific, cat. 15140122), and 2.5% Matrigel (Corning Inc., Corning, NY, cat. 354248) for the first three passages. The two PDC lines 997537-175-T-J1-PDC and 415267-285-R-J2-PDC were cultured on uncoated flasks. The 857933-349-R-J2-PDC line was cultured in 6C/Colon 1B media containing advanced DMEM/F-12 (Thermo Fisher Scientific, cat. 12634028), 10 mM HEPES (Thermo Fisher Scientific, cat. 15630080), 1X GlutaMAX supplement (Thermo Fisher Scientific, cat. 35050061), 0.1 mg/mL primocin (InvivoGen, San Diego, CA, cat. ant-pm-2), 10% defined fetal bovine serum, heat inactivated (HyClone Laboratories Inc., Logan, UT, cat. SH30070.03HI), 50% L-WRN conditioned media (ATCC, cat. CRL-3276), 1.25 mM N-Acetyl-L-cysteine (Sigma-Aldrich, cat. A9165), 10 mM nicotinamide (Sigma-Aldrich, cat. N0636), 1X B-27 supplement (Thermo Fisher Scientific, cat. 17504044), 1X N-2 supplement (Thermo Fisher Scientific, cat. […]

[1] = second compound 0.0316 µM, first compound 0.00316 µM
[2] = second compound 0.0316 µM, first compound 0.01 µM
[3] = second compound 0.0316 µM, first compound 0.0316 µM
[4] = second compound 0.0316 µM, first compound 0.1 µM
[5] = second compound 0.1 µM, first compound 0.00316 µM
[6] = second compound 0.1 µM, first compound 0.01 µM
[7] = second compound 0.1 µM, first compound 0.0316 µM
[8] = second compound 0.1 µM, first compound 0.1 µM
[9] = second compound 0.316 µM, first compound 0.00316 µM
[10] = second compound 0.316 µM, first compound 0.01 µM
[11] = second compound 0.316 µM, first compound 0.0316 µM
[12] = second compound 0.316 µM, first compound 0.1 µM
[13] = second compound 1 µM, first compound 0.00316 µM
[14] = second compound 1 µM, first compound 0.01 µM
[15] = second compound 1 µM, first compound 0.0316 µM
[16] = second compound 1 µM, first compound 0.1 µM
[17] = second compound 3.16 µM, first compound 0.00316 µM
[18] = second compound 3.16 µM, first compound 0.01 µM
[19] = second compound 3.16 µM, first compound 0.0316 µM
[20] = second compound 3.16 µM, first compound 0.1 µM
[21] = second compound 10 µM, first compound 0.00316 µM
[22] = second compound 10 µM, first compound 0.01 µM
[23] = second compound 10 µM, first compound 0.0316 µM
[24] = second compound 10 µM, first compound 0.1 µM
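Further: spheroids exposed to compounds for 7 days before viability readout.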
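Wherever viability, T/C is given: luminescence signal used as surrogate for viable cell content; 100% = DMSO vehicle control viability.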

For CC[C@@]1(O)C(=O)OCc2c1cc1n(c2=O)Cc2cc3c(CN(C)C)c(O)ccc3nc2-1 + Cc1cccc(N(C)C(=O)C2C(O)CCN2c2nc(C)cc(C(F)(F)F)c2C#N)c1, the IC50 (second compound 0.0316 µM) was greater than 100 nM, the IC50 (second compound 0.1 µM) was greater than 100 nM and the IC50 (second compound 0.316 µM) was 92.2 nM. The IC50 (second compound 1 µM) was greater than 100 nM, the IC50 (second compound 3.16 µM) was greater than 100 nM and the IC50 (second compound 10 µM) was greater than 100 nM. The viability, T/C (second compound 0.0316 µM, first compound 0.000316 µM) was 105%, the viability, T/C (second compound 0.0316 µM, first compound 0.001 µM) was 95.2% and the viability, T/C [1] was 89.6%. The viability, T/C [2] was 104%, the viability, T/C [3] was 73.7% and the viability, T/C [4] was 52.5%. It also gave a viability, T/C (second compound 0.1 µM, first compound 0.000316 µM) of 93.3%, a viability, T/C (second compound 0.1 µM, first compound 0.001 µM) of 101% and a viability, T/C [5] of 97.8%. The viability, T/C [6] was 101%, the viability, T/C [7] was 74.4% and the viability, T/C [8] was 52.2%. For the same compound, the viability, T/C (second compound 0.316 µM, first compound 0.000316 µM) was 94.9%, the viability, T/C (second compound 0.316 µM, first compound 0.001 µM) was 113% and the viability, T/C [9] was 96.8%. It also gave a viability, T/C [10] of 97.3%, a viability, T/C [11] of 78.7% and a viability, T/C [12] of 47.8%. It also gave a viability, T/C (second compound 1 µM, first compound 0.000316 µM) of 101%, a viability, T/C (second compound 1 µM, first compound 0.001 µM) of 98.9% and a viability, T/C [13] of 87.9%. The viability, T/C [14] was 104%, the viability, T/C [15] was 75% and the viability, T/C [16] was 59.2%. For the same compound, the viability, T/C (second compound 3.16 µM, first compound 0.000316 µM) was 89.6%, the viability, T/C (second compound 3.16 µM, first compound 0.001 µM) was 91.5% and the viability, T/C [17] was 92.8%. For the same compound, the viability, T/C [18] was 97.8%, the viability, T/C [19] was 78% and the viability, T/C [20] was 63.9%. For the same compound, the viability, T/C (second compound 10 µM, first compound 0.000316 µM) was 93.4%, the viability, T/C (second compound 10 µM, first compound 0.001 µM) was 95.2% and the viability, T/C [21] was 94.5%. It also gave a viability, T/C [22] of 98.8%, a viability, T/C [23] of 81.8% and a viability, T/C [24] of 54.5%.

With CCc1c2c(nc3ccc(O)cc13)-c1cc3c(c(=O)n1C2)COC(=O)[C@]3(O)CC + Cc1cccc(N(C)C(=O)C2C(O)CCN2c2nc(C)cc(C(F)(F)F)c2C#N)c1 the IC50 (second compound 0.0316 µM) was 76.2 nM, the IC50 (second compound 0.1 µM) was 71.7 nM and the IC50 (second compound 0.316 µM) was 68.6 nM. For the same compound, the IC50 (second compound 1 µM) was 64.9 nM, the IC50 (second compound 3.16 µM) was 35.5 nM and the IC50 (second compound 10 µM) was 74.4 nM. For the same compound, the viability, T/C [1] was 98.7%, the viability, T/C [2] was 80.6% and the viability, T/C [3] was 57.2%. The viability, T/C [4] was 46.8%, the viability, T/C (second compound 0.0316 µM, first compound 0.316 µM) was 40% and the viability, T/C (second compound 0.0316 µM, first compound 1 µM) was 28.6%. For the same compound, the viability, T/C [5] was 103%, the viability, T/C [6] was 81.6% and the viability, T/C [7] was 54.2%. The viability, T/C [8] was 46.7%, the viability, T/C (second compound 0.1 µM, first compound 0.316 µM) was 41.9% and the viability, T/C (second compound 0.1 µM, first compound 1 µM) was 28.2%. It also gave a viability, T/C [9] of 107%, a viability, T/C [10] of 91.9% and a viability, T/C [11] of 57.9%. The viability, T/C [12] was 45.3%, the viability, T/C (second compound 0.316 µM, first compound 0.316 µM) was 39.4% and the viability, T/C (second compound 0.316 µM, first compound 1 µM) was 26.1%. It also gave a viability, T/C [13] of 97.2%, a viability, T/C [14] of 79.8% and a viability, T/C [15] of 64.2%. It also gave a viability, T/C [16] of 39.2%, a viability, T/C (second compound 1 µM, first compound 0.316 µM) of 37.9% and a viability, T/C (second compound 1 µM, first compound 1 µM) of 29.4%. The viability, T/C [17] was 95%, the viability, T/C [18] was 69.8% and the viability, T/C [19] was 54.1%. It also gave a viability, T/C [20] of 36.9%, a viability, T/C (second compound 3.16 µM, first compound 0.316 µM) of 33.7% and a viability, T/C (second compound 3.16 µM, first compound 1 µM) of 33.2%. The viability, T/C [21] was 87.8%, the viability, T/C [22] was 65.6% and the viability, T/C [23] was 56.4%. It also gave a viability, T/C [24] of 47.5%, a viability, T/C (second compound 10 µM, first compound 0.316 µM) of 47.6% and a viability, T/C (second compound 10 µM, first compound 1 µM) of 31.7%.
